By IC50 is commonly meant the concentration that gives 50% inhibition. The low end stands for greater potency, the high end for weaker potency.

The assay deals with H1047R PIK3CA enzyme (Homo sapiens, UniProt P42336, H1047R). The assay is described as follows: ADP-Glo Biochemical PIK3CA Kinase Assay.
Sequence of H1047R PIK3CA enzyme (P42336 whole entry H1047R): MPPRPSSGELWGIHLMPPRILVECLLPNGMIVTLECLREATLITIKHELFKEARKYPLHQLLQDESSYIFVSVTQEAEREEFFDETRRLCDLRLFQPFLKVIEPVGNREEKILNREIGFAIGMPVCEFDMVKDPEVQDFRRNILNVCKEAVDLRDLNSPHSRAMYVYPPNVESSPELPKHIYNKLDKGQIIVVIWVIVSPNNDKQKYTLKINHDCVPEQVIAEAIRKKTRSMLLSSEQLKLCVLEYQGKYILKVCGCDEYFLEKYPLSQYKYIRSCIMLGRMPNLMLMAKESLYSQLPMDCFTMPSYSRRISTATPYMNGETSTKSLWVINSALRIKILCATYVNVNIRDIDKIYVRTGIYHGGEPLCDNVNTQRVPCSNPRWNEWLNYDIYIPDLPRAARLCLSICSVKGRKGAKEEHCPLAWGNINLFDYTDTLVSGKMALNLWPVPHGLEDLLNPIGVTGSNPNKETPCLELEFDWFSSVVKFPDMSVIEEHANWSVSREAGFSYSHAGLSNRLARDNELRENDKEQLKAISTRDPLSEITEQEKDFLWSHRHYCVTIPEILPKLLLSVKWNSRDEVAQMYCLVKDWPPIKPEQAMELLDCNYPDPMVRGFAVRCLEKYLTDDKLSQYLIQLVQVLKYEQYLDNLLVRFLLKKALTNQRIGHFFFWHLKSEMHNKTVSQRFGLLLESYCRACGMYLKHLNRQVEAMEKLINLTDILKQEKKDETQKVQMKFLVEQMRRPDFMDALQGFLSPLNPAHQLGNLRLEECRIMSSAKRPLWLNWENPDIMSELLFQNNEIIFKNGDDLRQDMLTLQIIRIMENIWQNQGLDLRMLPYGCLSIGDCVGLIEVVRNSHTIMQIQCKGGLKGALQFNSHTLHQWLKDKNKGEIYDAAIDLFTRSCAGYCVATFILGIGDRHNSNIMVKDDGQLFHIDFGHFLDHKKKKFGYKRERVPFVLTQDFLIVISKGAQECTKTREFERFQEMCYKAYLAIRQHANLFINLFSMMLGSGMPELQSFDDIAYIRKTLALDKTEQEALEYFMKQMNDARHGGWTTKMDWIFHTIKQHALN
Sequence of H1047R PIK3CA enzyme (P27986 whole entry partner): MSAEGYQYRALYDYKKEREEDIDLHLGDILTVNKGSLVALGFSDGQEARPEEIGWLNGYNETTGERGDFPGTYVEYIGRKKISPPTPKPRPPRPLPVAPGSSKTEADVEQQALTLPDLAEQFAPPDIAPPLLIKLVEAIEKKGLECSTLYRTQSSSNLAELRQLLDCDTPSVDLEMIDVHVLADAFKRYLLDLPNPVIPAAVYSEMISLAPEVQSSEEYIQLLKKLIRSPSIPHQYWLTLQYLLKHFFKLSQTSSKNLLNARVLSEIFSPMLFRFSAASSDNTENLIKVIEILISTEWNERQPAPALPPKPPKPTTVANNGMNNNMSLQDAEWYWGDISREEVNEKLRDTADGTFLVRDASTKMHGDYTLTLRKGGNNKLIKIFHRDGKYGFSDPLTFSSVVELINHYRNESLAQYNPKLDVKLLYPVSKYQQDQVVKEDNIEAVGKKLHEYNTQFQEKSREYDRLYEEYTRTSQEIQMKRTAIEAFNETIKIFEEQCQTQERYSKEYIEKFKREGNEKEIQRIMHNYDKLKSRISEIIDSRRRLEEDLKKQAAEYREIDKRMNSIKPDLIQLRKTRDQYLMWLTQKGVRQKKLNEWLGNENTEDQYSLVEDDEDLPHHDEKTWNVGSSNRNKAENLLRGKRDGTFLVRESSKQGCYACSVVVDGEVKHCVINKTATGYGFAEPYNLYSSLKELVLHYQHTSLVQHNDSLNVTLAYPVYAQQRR
Molecule `COCc1cc2c(c(N(C)C(=O)c3nsc4ccccc34)c1)C(c1ccccc1C)NC2=O` (stereo not shown) [Compound I-134, N-(6-(Methoxymethyl)-1-oxo-3-(o-tolyl)isoindolin-4-yl)-N-methylbenzo[d]isothiazole-3-carboxamide] came in with an IC50 of 10000 to 100000 nM.
`CC(=O)c1cc(NC(=O)c2nsc3ccccc23)c2c(c1)C(=O)NC2c1cc(F)ccc1Cl` (stereo not shown) [Compound I-135] came in with an IC50 of 500 to 1000 nM.
With `CC(C)(O)c1cc(NC(=O)c2nsc3ccccc23)c2c(c1)C(=O)NC2c1cc(F)ccc1Cl` (stereo not shown) [Compound I-136], the IC50 was no more than 100 nM.
Molecule `O=C1NC(c2cc(F)ccc2C(F)F)c2c(NC(=O)c3nsc4ccccc34)cccc21` (stereo not shown) [Compound I-137] came in with a concentration for half-maximal inhibition (IC50) of no more than 100 nM.
For `O=C(Nc1cccc2c1C(c1cc(F)ccc1C(F)F)NC2=O)c1cc(F)cc(C(F)(F)F)c1` (stereo not shown) [Compound I-138], the IC50 is no more than 100 nM.
On to `Cc1ccccc1C1NC(=O)c2c(CN)ccc(NC(=O)c3csc4ccccc34)c21` (stereo not shown) [Compound I-140], for which the IC50 is no more than 100 nM.
For `Cc1ccccc1C1NC(=O)c2cc(-c3cnoc3)cc(NC(=O)c3csc4ccccc34)c21` (stereo not shown) [Compound I-141], the IC50 is no more than 100 nM.
Under `Cc1ccccc1C1NC(=O)c2nccc(NC(=O)c3cc(F)cc(C(F)(F)F)c3)c21` (stereo not shown) [Compound I-142] stands 100 to 500 nM.
Under `Cc1ccccc1C1NC(=O)c2c(N(C)C)ncc(NC(=O)c3nsc4ccccc34)c21` (stereo not shown) [Compound I-143] stands 100 to 500 nM; under `Cc1ccccc1C1NC(=O)c2cccc(NCc3nsc4ccccc34)c21` (stereo not shown) [Compound I-145], 10000 to 100000 nM.
Under `Cc1ccccc1C1NC(=O)c2nccc(NC(=O)N3CCc4ccccc43)c21` (stereo not shown) [Compound I-147, N-(7-oxo-5-(o-tolyl)-6,7-dihydro-5H-pyrrolo[3,4-b]pyridin-4-yl)indoline-1-carboxamide] stands 100 to 500 nM.
Turning to `Cc1ccccc1C1NC(=O)c2nccc(NC(=O)N3CCc4c(F)cc(F)cc43)c21` (stereo not shown) [Compound I-148], the IC50 was 500 to 1000 nM.
The molecule `Cc1ccccc1C1NC(=O)c2c(C(N)=O)ccc(NC(=O)c3csc4ccccc34)c21` (stereo not shown) [Compound I-149, 7-(Benzo[b]thiophene-3-carboxamido)-3-oxo-1-(o-tolyl)isoindoline-4-carboxamide] showed an IC50 of no more than 100 nM.
`CNC(=O)c1ccc(NC(=O)c2csc3ccccc23)c2c1C(=O)NC2c1ccccc1C` (stereo not shown) [Compound I-150] displayed an IC50 of no more than 100 nM.
Turning to `Cc1ccccc1C1NC(=O)c2cccc(NC(=O)c3ncc4ccc(Cl)cn34)c21` (stereo not shown) [Compound I-151], the IC50 was 10000 to 100000 nM.
`Cc1ccccc1-n1[nH]c(=O)c2cccc(NC(=O)c3nsc4ccc(F)cc34)c21` [Compound I-152] returned an IC50 of 1000 to 10000 nM.
To `Cc1ccccc1C1NC(=O)c2c(C)ccc(NC(=O)c3csc4ccccc34)c21` (stereo not shown) [Compound I-153, N-(7-Methyl-1-oxo-3-(o-tolyl)isoindolin-4-yl)benzo[b]thiophene-3-carboxamide] belongs 100 to 500 nM; to `O=C1NC(c2cc(F)ccc2Cl)c2c(NC(=O)c3nsc4ccccc34)cc(CO)cc21` (stereo not shown) [Compound I-154], no more than 100 nM.
On to `CNC(=O)c1cc(NC(=O)c2cc(F)cc(C(F)(F)F)c2)c2c(c1)C(=O)NC2c1ccccc1C` (stereo not shown) [Compound I-156], for which the IC50 was no more than 100 nM.
For `O=C1NC(c2cc(Cl)ccc2Cl)c2c(NC(=O)c3nsc4ccccc34)cccc21` (stereo not shown) [Compound I-157], the IC50 is no more than 100 nM.
`O=C1NC(c2cccnc2Cl)c2c(NC(=O)c3nsc4ccccc34)cccc21` (stereo not shown) [Compound I-158] registered an IC50 of 1000 to 10000 nM.
For `O=C1NC(c2cc(F)c(F)cc2Cl)c2c(NC(=O)c3nsc4ccccc34)cccc21` (stereo not shown) [Compound I-159], the IC50 is no more than 100 nM.
Under `O=C1NC(c2cnccc2Cl)c2c(NC(=O)c3nsc4ccccc34)cccc21` (stereo not shown) [Compound I-160] stands 500 to 1000 nM.
`Cn1cc(-c2cc(NC(=O)c3cc(F)cc(C(F)(F)F)c3)c3c(n2)C(=O)NC3c2cc(F)ccc2Cl)cn1` (stereo not shown) [Compound I-162] yielded an IC50 of no more than 100 nM.
Under `CNC(=O)c1cc(NC(=O)c2nsc3ccccc23)c2c(c1)C(=O)N[C@H]2c1ccccc1C` [Compound I-163] stands no more than 100 nM; under `Cc1ccccc1[C@H]1NC(=O)c2cc(C(=O)NCC(F)F)cc(NC(=O)c3nsc4ccccc34)c21` [Compound I-165], 100 to 500 nM; under `O=C1N[C@@H](c2cc(F)ccc2C(F)F)c2c(NC(=O)c3nsc4ccccc34)cccc21` [Compound I-168], no more than 100 nM.
Molecule `O=C(Nc1cccc2c1[C@@H](c1cc(F)ccc1C(F)F)NC2=O)c1cc(F)cc(C(F)(F)F)c1` [Compound I-169] showed an IC50 of 1000 to 10000 nM.
Take `O=C(Nc1cccc2c1[C@H](c1cc(F)ccc1C(F)F)NC2=O)c1cc(F)cc(C(F)(F)F)c1` [Compound I-170]: the IC50 was no more than 100 nM.
Molecule `O=C(Nc1ccnc2c1C(c1ccccc1Cl)NC2=O)c1cc(F)cc(Cl)c1` (stereo not shown) [Compound I-171] returned an IC50 of 1000 to 10000 nM.
`O=C1NC(c2ccccc2Cl)c2c(NC(=O)c3nsc4ccccc34)ccnc21` (stereo not shown) [Compound I-172] showed an IC50 of 100 to 500 nM.
In turn, `O=C(Nc1ccnc2c1C(c1cccc(F)c1F)NC2=O)c1cc(F)cc(Cl)c1` (stereo not shown) [Compound I-173] returned an IC50 of 1000 to 10000 nM.
`O=C(Nc1ccnc2c1C(c1cccc(F)c1F)NC2=O)c1cc(F)cc(C(F)(F)F)c1` (stereo not shown) [Compound I-174]: the IC50 fell in the range of 1000 to 10000 nM.
To `O=C1NC(c2cccc(F)c2F)c2c(NC(=O)c3nsc4ccccc34)ccnc21` (stereo not shown) [Compound I-175] belongs 500 to 1000 nM; to `Cc1ccccc1C1NC(=O)c2ccnc(NC(=O)c3nsc4ccccc34)c21` (stereo not shown) [Compound I-176, N-[3-(2-Methylphenyl)-1-oxo-1H,2H,3H-pyrrolo[3,4-c]pyridin-4-yl]-1,2-benzothiazole-3-carboxamide], 1000 to 10000 nM.
`Cc1ccccc1C1NC(=O)c2nccc(NC(=O)N3CCc4ccc(F)cc43)c21` (stereo not shown) [Compound I-177] displayed an IC50 of 500 to 1000 nM.
`Cc1ccccc1-n1[nH]c(=O)c2cccc(NC(=O)c3cc(F)cc(C(F)(F)F)c3)c21` [Compound I-178] displayed an IC50 of 500 to 1000 nM.
Molecule `Cc1ccccc1C1NC(=O)c2cccc(NC(=O)C34CCC(CC3)CC4)c21` (stereo not shown) [Compound I-179, N-(1-Oxo-3-(o-tolyl)isoindolin-4-yl)bicyclo[2.2.2]octane-1-carboxamide] showed an IC50 of 1000 to 10000 nM.
Under `Cc1ccccc1C1NC(=O)c2cccc(NC(=O)c3ncc4c(F)cc(F)cn34)c21` (stereo not shown) [Compound I-180, 6,8-Difluoro-N-(1-oxo-3-(o-tolyl)isoindolin-4-yl)imidazo[1,5-a]pyridine-3-carboxamide] stands 10000 to 100000 nM.
Take `Cc1ccccc1C1NC(=O)c2cc(CCO)cc(NC(=O)c3csc4ccccc34)c21` (stereo not shown) [Compound I-181, N-[6-(2-Hydroxyethyl)-3-(2-methylphenyl)-1-oxo-2,3-dihydro-1H-isoindol-4-yl]-1-benzothiophene-3-carboxamide]: the IC50 is no more than 100 nM.
For `O=C(Nc1cc(-c2cn[nH]c2)nc2c1C(c1cc(F)ccc1Cl)NC2=O)c1cc(F)cc(Cl)c1` (stereo not shown) [Compound I-182], the IC50 lay in the range of 100 to 500 nM.
`CSc1nc(NC(=O)c2cc(F)cc(C(F)(F)F)c2)c2c(n1)C(=O)NC2c1ccccc1Cl` (stereo not shown) [Compound I-183] showed an IC50 of 1000 to 10000 nM.
`Nc1nc(NC(=O)c2cc(F)cc(C(F)(F)F)c2)c2c(n1)C(=O)NC2c1ccccc1Cl` (stereo not shown) [Compound I-184] yielded a half-inhibitory concentration (IC50) of 500 to 1000 nM.
`O=C(Nc1cc(CO)cc2c1C(c1cc(F)ccc1Cl)NC2=O)c1cc(F)cc(C(F)(F)F)c1` (stereo not shown) [Compound I-185]: the IC50 was no more than 100 nM.
To `Cn1cc(-c2cc(NC(=O)c3cc(F)cc(C(F)(F)F)c3)c3c(n2)C(=O)N[C@@H]3c2cc(F)ccc2Cl)cn1` [Compound I-186] belongs 500 to 1000 nM; to `Cn1cc(-c2cc(NC(=O)c3cc(F)cc(C(F)(F)F)c3)c3c(n2)C(=O)N[C@H]3c2cc(F)ccc2Cl)cn1` [Compound I-187], no more than 100 nM.
To `O=C(Nc1cccc2c1C1(CCc3ccccc31)NC2=O)c1cc(F)cc(C(F)(F)F)c1` (stereo not shown) [Compound I-188] belongs 10000 to 100000 nM; to `CC(C)(O)c1cc(NC(=O)c2cc(F)cc(C(F)(F)F)c2)c2c(c1)C(=O)N[C@@H]2c1cc(F)ccc1Cl` [Compound I-190], 1000 to 10000 nM; to `CC(C)(O)c1cc(NC(=O)c2nsc3ccccc23)c2c(c1)C(=O)N[C@@H]2c1cc(F)ccc1Cl` [Compound I-191], 500 to 1000 nM.
In turn, `O=C(Nc1cc(-c2cn[nH]c2)nc2c1[C@@H](c1cc(F)ccc1Cl)NC2=O)c1cc(F)cc(C(F)(F)F)c1` [Compound I-193] came in with an IC50 of 1000 to 10000 nM.
The molecule `O=C(Nc1cc(-c2cn[nH]c2)nc2c1[C@H](c1cc(F)ccc1Cl)NC2=O)c1cc(F)cc(C(F)(F)F)c1` [Compound I-194] returned an IC50 of no more than 100 nM.
On to `O=C(Nc1cc(-c2cn[nH]c2)nc2c1[C@@H](c1cc(F)ccc1Cl)NC2=O)c1cc(F)cc(Cl)c1` [Compound I-195], for which the IC50 fell in the range of 1000 to 10000 nM.
For `O=C(Nc1cc(-c2cn[nH]c2)nc2c1[C@H](c1cc(F)ccc1Cl)NC2=O)c1cc(F)cc(Cl)c1` [Compound I-196], the IC50 was no more than 100 nM.
Molecule `N#Cc1ccccc1C1NC(=O)c2cccc(NC(=O)c3nsc4ccccc34)c21` (stereo not shown) [Compound I-197] registered an IC50 of 1000 to 10000 nM.
Under `COc1cccc2c(C(=O)Nc3cccc4c3C(c3ccccc3C)NC4=O)csc12` (stereo not shown) [Compound I-198] stands 10000 to 100000 nM; under `Cc1ccccc1C1NC(=O)c2nccc(NC(=O)N3CCc4ncccc43)c21` (stereo not shown) [Compound I-199], 10000 to 100000 nM.
`Cc1ccccc1C1NC(=O)c2cccc(NC(=O)c3noc4ccc(Cl)cc34)c21` (stereo not shown) [Compound I-200] returned an IC50 of 1000 to 10000 nM.
`Cc1ccccc1C1NCc2cccc(NC(=O)c3nsc4ccccc34)c21` (stereo not shown) [Compound I-201] gave an IC50 of 1000 to 10000 nM.
`Cc1ccccc1C1NC(=O)c2c(Br)ccc(NC(=O)c3nsc4ccccc34)c21` (stereo not shown) [Compound I-203] came in with an IC50 of no more than 100 nM.
To `O=C1NC(C2CCCCC2)c2c(NC(=O)c3nsc4ccccc34)cccc21` (stereo not shown) [Compound I-204, N-(3-Cyclohexyl-1-oxoisoindolin-4-yl)benzo[d]isothiazole-3-carboxamide] belongs 100 to 500 nM; to `C=Cc1ccc(NC(=O)c2nsc3ccccc23)c2c1C(=O)NC2c1ccccc1C` (stereo not shown) [Compound I-205], 100 to 500 nM.
